Data published in patent publication US20080221086A1, “Novel Inhibitors of Glutaminyl Cyclase” (PROBIODRUG AG, priority 2006, published 2008).
Like-named read-outs stand apart in the source and are kept apart here.

Target: hQC (Homo sapiens, UniProt Q16769)
Assay: Fluorometric assay of glutaminyl cyclase (QC) inhibition, H-Gln-βNA or H-Gln-AMC substrate
Assay type: biochemical
How it was run: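 Fluorometric coupled assays at 30° C in Tris/HCl pH 8.0 with EDTA and pyroglutamyl aminopeptidase used either 0.2 mM H-Gln-βNA (320/410 nm) or H-Gln-AMC (380/460 nm), started by QC. Screening used 4 mM inhibitor at substrate 1 KM. Ki came from fitting progress curves to competitive inhibition.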

[1] = compound from preparative synthesis, purified by chromatography, fluorescent assay, read-out: IC50 hQC

Chain of hQC (Q16769 29-361): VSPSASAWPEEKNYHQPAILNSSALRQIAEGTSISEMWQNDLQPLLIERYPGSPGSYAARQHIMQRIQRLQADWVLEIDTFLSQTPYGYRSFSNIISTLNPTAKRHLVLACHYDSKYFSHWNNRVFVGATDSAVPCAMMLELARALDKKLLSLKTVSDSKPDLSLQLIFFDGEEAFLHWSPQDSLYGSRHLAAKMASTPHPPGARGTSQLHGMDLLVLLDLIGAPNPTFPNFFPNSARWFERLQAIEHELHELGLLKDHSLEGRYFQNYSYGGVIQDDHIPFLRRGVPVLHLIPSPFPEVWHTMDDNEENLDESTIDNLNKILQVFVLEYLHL

Row | SMILES | IC50 (read-out: IC50) [µM] | IC50 [1] [µM]
1 | S=C1NC(=NC2CCc3ccccc32)C(c2ccnc3ccccc23)N1c1ccc2[nH]cnc2c1 (stereo not drawn) [Compound 191, 1-(1H-Benzoimidazol-5-yl)-4-indan-1-ylimino-5-quinolin-4-yl-imidazolidine-2-thione] | 9.4 | –
2 | O=c1c(C2/C(=N/c3cc(Cl)ccc3Cl)NC(=S)N2c2ccc3[nH]cnc3c2)coc2ccccc12 (stereo not drawn) [Compound 192, 3-{3-(1H-Benzoimidazol-5-yl)-5-2,5-dichloro-imidazolidin-4-yl}-chromen-4-one] | 3.1 | –
3 | CC1=CC(C)C(C2/C(=N/C3CCc4ccccc43)NC(=O)N2c2ccc3[nH]cnc3c2)CC1 (stereo not drawn) [Compound 193, 1-(1H-Benzoimidazol-5-yl)-5-(2,4-dimethyl-cyclohex-3-enyl)-4-indan-1-ylimino-imidazolidin-2-one] | 4.9 | –
4 | S=C1N/C(=N\c2cc(Cl)ccc2Cl)C(c2ccc(Cl)cc2)N1c1ccc2[nH]cnc2c1 (stereo not drawn) [Compound 194, 1-(1H-Benzoimidazol-5-yl)-5-(4-chloro-phenyl)-4-2,5-dichloro-phenylimino-imidazolidine-2-thione] | 6.7 | –
5 | C/N=C1/NC(=O)N(c2ccc3[nH]cnc3c2)C1c1ccc2c(c1)OCO2 (stereo not drawn) [Compound 195, 5-Benzo1,3dioxol-5-yl-1-(1H-benzoimidazol-5-yl)-4-methylimino-imidazolidin-2-one] | 1.3 | –
6 | O=C1N/C(=N\C2CCCCC2)C(c2cc3c(cc2Br)OCO3)N1c1ccc2nc[nH]c2c1 (stereo not drawn) [Compound 196, 1-(3H-Benzoimidazol-5-yl)-5-(6-bromo-benzo1,3-dioxol-5-yl)-4-cyclohexylimino-imidazolidin-2-one] | 0.004 | –
7 | CC(CC1/C(=N/C2CCCc3ccccc32)NC(=O)N1c1ccc2[nH]cnc2c1)CC(C)(C)C (stereo not drawn) [Compound 197, 1-(1H-Benzoimidazol-5-yl)-4-1,2,3,4-tetrahydro-naphthalen-1-ylimino-5-(2,4,4-trimethyl-pentyl)-imidazolidin-2-one] | 9.4 | –
8 | O=C1N/C(=N\C2CCc3ccccc32)CN1c1ccc2[nH]cnc2c1 (stereo not drawn) [Compound 198, 1-(1H-Benzoimidazol-5-yl)-4-indan-1-ylimino-imidazolidin-2-one] | 4 | –
9 | CC1=CC(C)C(C2/C(=N/C(C)(C)CC(C)(C)C)NC(=S)N2c2ccc3nc[nH]c3c2)CC1 (stereo not drawn) [Compound 200, 1-(3H-Benzoimidazol-5-yl)-5-(2,4-dimethyl-cyclohex-3-enyl)-4-1,1,3,3-tetramethyl-butylimino-imidazolidine-2-thione] | 5.8 | –
10 | O=C(C/N=C1/NC(=O)N(c2ccc3nc[nH]c3c2)C1c1cc2c(cc1Br)OCO2)N1CCSCC1 (stereo not drawn) [Compound 201, 1-(3H-Benzoimidazol-5-yl)-5-(6-bromo-benzo1,3dioxol-5-yl)-4-2-oxo-2-thiomorpholin-4-yl-ethylimino-imidazolidin-2-one] | 4 | –
11 | Fc1ccc(/N=C2\NC(=S)N(c3ccc4[nH]cnc4c3)C2c2ccnc3ccccc23)cc1 (stereo not drawn) [Compound 202, 1-(1H-Benzoimidazol-5-yl)-4-4-fluoro-phenylimino-5-quinolin-4-yl-imidazolidine-2-thione] | 7.6 | –
12 | Cc1ccc2occ(C3/C(=N/C4CCCCC4O)NC(=S)N3c3ccc4[nH]cnc4c3)c(=O)c2c1 (stereo not drawn) [Compound 203, 3-{3-(1H-Benzoimidazol-5-yl)-5-2-hydroxy-cyclohexylimino-2-thioxo-imidazolidin-4-yl}-6-methyl-chromen-4-one] | 5.8 | –
13 | O=C1N/C(=N/Cn2nnc3ccccc32)C(c2cc3c(cc2Br)OCO3)N1c1ccc2nc[nH]c2c1 (stereo not drawn) [Compound 204, 1-(3H-Benzoimidazol-5-yl)-4-benzotriazol-1-ylmethylimino-5-(6-bromo-benzo1,3dioxol-5-yl)-imidazolidin-2-one] | 0.4 | –
14 | O=C1N/C(=N\C2CCCCCC2)C(C2CCOC2)N1c1ccc2[nH]cnc2c1 (stereo not drawn) [Compound 205, 1-(1H-Benzoimidazol-5-yl)-4-cycloheptylimino-5-(tetrahydro-furan-3-yl)-imidazolidin-2-one] | 9.4 | –
15 | COC(=O)C(C)/N=C1\NC(=O)N(c2ccc3[nH]cnc3c2)C1C1CCC(C)=CC1C (stereo not drawn) [Compound 206, Methyl 2-(1-(1H-benzo[d]imidazol-5-yl)-5-(2,4-dimethylcyclohex-3-enyl)-2-oxoimidazolidin-4-ylideneamino)propanoate] | 7.6 | –
16 | O=C(C/N=C1\NC(=S)N(c2ccc3[nH]cnc3c2)C1c1cc2ccccc2s1)N1CCSCC1 (stereo not drawn) [Compound 207, 2-(5-(benzo[b]thiophen-2-yl)-1-(1H-benzo[d]imidazol-5-yl)-2-thioxoimidazolidin-4-ylideneamino)-1-thiomorpholinoethan-one] | 4 | –
17 | O=C(C/N=C1/NC(=O)N(c2ccc3[nH]cnc3c2)C1c1ccc(Br)cc1)N1CCSCC1 (stereo not drawn) [Compound 208, 1-(1H-Benzoimidazol-5-yl)-5-(4-bromo-phenyl)-4-2-oxo-2-thiomorpholin-4-yl-ethylimino-imidazolidin-2-one] | 4 | –

Row | SMILES | IC50 (read-out: IC50) [µM] | IC50 [1] [µM]
18 | O=C1N/C(=N\CCCc2ccccc2)C(c2coc3ccccc3c2=O)N1c1ccc2[nH]cnc2c1 (stereo not drawn) [Compound 209, 1-(1H-Benzoimidazol-5-yl)-5-(4-oxo-4H-chromen-3-yl)-4-3-phenyl-propylimino-imidazolidin-2-one] | 1.3 | –
19 | S=C1N/C(=N\C2CCCC2)C(c2ccc(N3CCCC3)cc2)N1c1ccc2[nH]cnc2c1 (stereo not drawn) [Compound 210, 1-(1H-Benzoimidazol-5-yl)-4-cyclopentylimino-5-(4-pyrrolidin-1-yl-phenyl)-imidazolidine-2-thione] | 3.1 | –
20 | O=C1N/C(=N\C2CCCC2)C(c2ccc(Cl)cc2)N1c1ccc2[nH]cnc2c1 (stereo not drawn) [Compound 211, 1-(1H-Benzoimidazol-5-yl)-5-(4-chloro-phenyl)-4-cyclopentylimino-imidazolidin-2-one] | 0.004 | 0.0377
21 | O=C1N/C(=N\CCCN2CCOCC2)C(c2ccnc3ccccc23)N1c1ccc2[nH]cnc2c1 (stereo not drawn) [Compound 212, 1-(1H-Benzoimidazol-5-yl)-4-3-morpholin-4-yl-propylimino-5-quinolin-4-yl-imidazolidin-2-one] | 4.9 | –
22 | Cc1ccc2occ(C3/C(=N/C4CCc5ccccc54)NC(=O)N3c3ccc4[nH]cnc4c3)c(=O)c2c1 (stereo not drawn) [Compound 213, 1-(1H-Benzoimidazol-5-yl)-4-indan-1-ylimino-5-(6-methyl-4-oxo-4H-chromen-3-yl)-imidazolidin-2-one] | 0.004 | –
23 | Oc1cccc(C2/C(=N/c3cc(Cl)ccc3Cl)NC(=S)N2c2ccc3[nH]cnc3c2)c1 (stereo not drawn) [Compound 214, 1-(1H-Benzoimidazol-5-yl)-4-2,5-dichloro-phenylimino-5-(3-hydroxy-phenyl)-imidazolidine-2-thione] | 7.6 | –
24 | O=C1CCCN1CCCN=C1NC(=O)N(c2ccc3[nH]cnc3c2)C1c1cccc2cccnc12 (stereo not drawn) [Compound 215, 1-(1H-Benzoimidazol-5-yl)-4-3-(2-oxo-pyrrolidin-1-yl)-propylimino-5-quinolin-8-yl-imidazolidin-2-one] | 6.7 | –
25 | S=C1N/C(=N/Cn2nnc3ccccc32)C(c2ccc3c(c2)OCCO3)N1c1ccc2[nH]cnc2c1 (stereo not drawn) [Compound 217, 1-(1H-Benzoimidazol-5-yl)-4-benzotriazol-1-ylmethylimino-5-(2,3-dihydro-benzo1,4dioxin-6-yl)-imidazolidine-2-thione] | 0.4 | –
26 | O=C1N/C(=N\C2CCc3ccccc32)C(c2ccc3[nH]ccc3c2)N1c1ccc2[nH]cnc2c1 (stereo not drawn) [Compound 218, 1-(1H-Benzoimidazol-5-yl)-4-indan-1-ylimino-5-(1H-indol-5-yl)-imidazolidin-2-one] | 0.004 | –
27 | Cc1ccc(C2/C(=N\CCc3c[nH]c4ccccc34)NC(=O)N2c2ccc3[nH]cnc3c2)c(C)c1 (stereo not drawn) [Compound 219, 1-(1H-Benzoimidazol-5-yl)-5-(2,4-dimethyl-phenyl)-4-2-(1H-indol-3-yl)-ethylimino-imidazolidin-2-one] | 0.004 | –
28 | O=C1N/C(=N\C2CCCCC2)C(c2c(F)ccc(Cl)c2F)N1c1ccc2[nH]cnc2c1 (stereo not drawn) [Compound 220, 1-(1H-Benzoimidazol-5-yl)-5-(3-chloro-2,6-difluoro-phenyl)-4-(cyclohexylimino)-imidazolidin-2-one] | 0.004 | 0.0984
29 | O=C1N/C(=N/Cc2cccnc2)C(c2ccc3ccccc3c2)N1c1ccc2[nH]cnc2c1 (stereo not drawn) [Compound 221, 1-(1H-Benzoimidazol-5-yl)-5-naphthalen-2-yl-4-pyridin-3-ylmethylimino-imidazolidin-2-one] | 6.7 | –
30 | O=C(CN=C1NC(=O)N(c2ccc3[nH]cnc3c2)C1c1ccc2[nH]ccc2c1)N1CCC(O)C1 (stereo not drawn) [Compound 222, 1-(1H-Benzoimidazol-5-yl)-4-2-(3-hydroxy-pyrrolidin-1-yl)-2-oxo-ethylimino-5-(1H-indol-5-yl)-imidazolidin-2-one] | 1.3 | –
31 | C/N=C1/NC(=O)N(c2ccc3[nH]cnc3c2)C1c1c[nH]c2ccc(Cl)cc12 (stereo not drawn) [Compound 223, 1-(1H-Benzoimidazol-5-yl)-5-(5-chloro-1H-indol-3-yl)-4-methylimino-imidazolidin-2-one] | 0.4 | –
32 | O=C1N/C(=N/CCCc2ccccc2)C(c2ccc3[nH]ccc3c2)N1c1ccc2[nH]cnc2c1 (stereo not drawn) [Compound 224, 1-(1H-Benzoimidazol-5-yl)-5-(1H-indol-5-yl)-4-3-phenyl-propylimino-imidazolidin-2-one] | 0.004 | –
33 | COc1ccc(C2C(=NCC(=O)N3CCSCC3)NC(=S)N2c2ccc3[nH]cnc3c2)c(F)c1 (stereo not drawn) [Compound 225, 2-(1-(1H-Benzo[d]imidazol-5-yl)-5-(2-fluoro-4-methoxyphenyl)-2-thioxoimidazolidin-4-ylideneamino)-1-thiomorpholinoethanone] | 6.7 | –
34 | O=C1N/C(=N/Cc2cccnc2)C(c2cc(F)cc(F)c2)N1c1ccc2[nH]cnc2c1 (stereo not drawn) [Compound 227, 1-(1H-Benzoimidazol-5-yl)-5-(3,5-difluoro-phenyl)-4-pyridin-3-ylmethylimino-imidazolidin-2-one] | 1.3 | –
